In US20210108199A1, “Treatment for aggressive cancers by targeting C9ORF72” (The Trustees of Columbia University in the City of New York, priority 2017, published 2021):

Columns and labels:
Assay type in all cases: cell-based
C9 = C9 knock down efficiency by western blot; settings: U87 cells, vs control siRNA
Method: For siRNA knockdown experiments, siRNAs targeting C9 mRNA were designed with the Whitehead website (sirna.wi.mit.edu) and with RNAxs webserver (rna.tbi.univie.ac.at/cgi-bin/RNAxs). All siRNAs were obtained from GenePharma™. Lipofectamine RNAiMAX (Thermo Scientific™) was used as the transfection reagent for all siRNA experiments (according to the manufacturer's instructions). siRNA concentration was 40 nM per 60 mm plate. After 6 hours, media was changed and cells were treated again with siRNA after 48 hours. For RNA and protein analysis, cells were harvested after 48 hours following the second treatment. All KD experiments were performed in three biological replicates. The siRNA sequences were as follows: […] (SEQ ID NO:631; sense) and […] […]
For Western blot analysis, cells were lysed with lysis buffer (20 mM sodium phosphate (pH 7.0), 250 mM NaCl, 30 mM sodium pyrophosphate, 0.1% Nonidet™ P-40, 5 mM EDTA, 10 mM NaF, 0.1 mM Na3VO4, and 1 mM PMSF) supplemented with complete protease inhibitors (Roche™) and homogenized by passage through a 28 gauge needle. Protein concentration was measured with a Bio-Rad™ protein assay dye reagent and results were read using a spectrophotometer (BiophotometerPlus™ by Eppendorf™). […] Quantitation of blots was performed Image Studio Lite software (LI-COR Biosciences™). […]

U87 cells = assay: Mitochondrial imaging (MitoTracker) and MiNA quantitation
Method: Mitchondria imaging in U87 cell was performed with MitoTracker™ Red CMXRos (ThermoFisher™, M7512) according to the manufacturer's protocol. Cells then were imaged as described herein.
Quantitation was performed using a publicly available macro MiNA for ImageJ™ as described.
The vacuoles were studied to investigate whether they are swollen mitochondria, because several reports observed vacuolated mitochondria in ALS patients and mice models that resemble the phenotype seen here. A fluorescent mitochondrial dye was used to visualize mitochondria upon C9 KD. […] See FIG. 5A and FIG. 5B, which show an IF image of U87 cells treated as in Example 1 and stained with MitoTracker (red) and nuclei stained with DAPI (blue).
To obtain the data seen in FIG. 6, the stained mitochondria from FIG. 5 were IF stained and analyzed using MiNA software for ImageJ™.

caspase-3, PARP1 = assay: Western blot of caspase-3 and PARP1 cleavage; settings: U87 cells
Method: For Western blot analysis, cells were lysed with lysis buffer (20 mM sodium phosphate (pH 7.0), 250 mM NaCl, 30 mM sodium pyrophosphate, 0.1% Nonidet™ P-40, 5 mM EDTA, 10 mM NaF, 0.1 mM Na3VO4, and 1 mM PMSF) supplemented with complete protease inhibitors (Roche™) and homogenized by passage through a 28 gauge needle. Protein concentration was measured with a Bio-Rad™ protein assay dye reagent and results were read using a spectrophotometer (BiophotometerPlus™ by Eppendorf™). Protein extracts were resolved by SDS PAGE on gradient (Thermo Fisher™) or 12% gels. Proteins were then electrotransferred at 350 mA for 80 minutes onto a PVDF membrane (Immobilon-P PVDF). Membranes were blocked with PBST with 5% milk and 1% BSA for 30 minutes. Quantitation of blots was performed Image Studio Lite software (LI-COR Biosciences™).
To check known markers of apoptosis, including caspase-3 cleavage and PARP1 cleavage, U87 cells were treated with doxorubicin as a positive control for apoptotic markers. […] FIG. 17 is a set of WB visualizing the levels of cleaved and un-cleaved caspace-3, and cleaved and un-cleaved PARP1 in cells treated with control (siCtrl) and C9 (siC9; SEQ ID NO:631) siRNA, and U87 cells treated.

γ-H2AX = γ-H2AX western blot and foci quantitation; settings: U87 cells
Method: Cells were treated with control and C9 siRNA for three days. Cells then were fixed and stained as described in the as described above with p-H2AX(S139, #25575) antibody. For a DNA damage positive control, 0.5 μM doxorubicin hydrochloride (Sigma™, D151510MG) was used for 24 hours before imaging. Cells were then imaged using LSM 700 Carl Zeiss™. To quantify p-H2AX foci we used a publicly available software FoCo™ as described previously.
To further confirm the presence of DNA damage upon C9 KD, the DNA damage marker γ-H2AX was used as a probe on C9 KD. […] Immunofluorescence was used to image and quantitate γ-H2AX foci in control, C9 KD and doxorubicin-treated U87 cells.
FIG. 25A is a WB showing γ-H2AX and ubiquitinated γ-H2AX, control (siCtrl) and C9 KD (siC9; SEQ ID NO:631), with loading of control actin. FIG. 25B is a set of IF images of U87 cells stained for γ-H2AX (green). FIG. 25C is a graph quantitating about 90 cells (from three biological replicates) for γ-H2AX foci per cell between control (siCtrl) C9 KD (siC9) and DOX-treated U87 cells. Statistical significance was assessed by an unpaired t-test: NS P>0.05, *P≤0.05, **P≤0.01, ***P≤0.001 ****P≤0.0001.

Question: Which “C9 expression (western blot)” value (C9) does the source give for “siC9: siRNA targeting C9 mRNA: UUAAUGAAACAAUAAUCACUC (SEQ ID NO:631; sense) and GUGAUUAUUGUUUCAUUAAUC (SEQ ID NO:632; antisense) (listed as RNA, chemistry not given here)” here?
Answer: Its value is “reduced expression compared to control”.

Question: What about the “total amount of individual and networked mitochondria staining” value (U87 cells; MiNA) of the same substance?
Answer: Its value is “increased”.

Question: What about the “mitochondrial dye staining of vacuoles” value (U87 cells; MitoTracker) of the same substance?
Answer: Its value is “did not stain red”.

Question: And the mitochondrial network organization (U87 cells; vs control)?
Answer: Its mitochondrial network organization is “significant mitochondrial network disorganization”.

Question: What about the PARP1 cleavage (caspase-3, PARP1) of the same substance?
Answer: Its PARP1 cleavage is “not observed”.

Question: What about the PARP1 protein (caspase-3, PARP1) of the same substance?
Answer: The PARP1 protein was “no PARP1 protein observed”.

Question: And the “caspase 3 cleavage” value (caspase-3, PARP1)?
Answer: The value was “did not lead to caspase 3 cleavage”.

Question: And the “γ-H2AX levels (western blot)” value (γ-H2AX)?
Answer: Its value is “increased γ-H2AX levels”.

Question: And the “γ-H2AX foci per cell” value (γ-H2AX; immunofluorescence)?
Answer: The value was “significant increase in γ-H2AX foci”.
